The record followed here is ChEMBL document CHEMBL4765442, “Anti-Giardia Drug Discovery: Current Status and Gut Feelings” (J Med Chem, 2020).

What all share (format): functional, organism-based
Test [1] concerns Giardia intestinalis. Put plainly: Antigiardial activity against metronidazole-resistant Giardia lamblia 713-M3 incubated for 48 hrs. Conditions: Giardia duodenalis, 713-M3, 48 h.
Test [2] concerns Giardia intestinalis. Put plainly: Antigiardial activity against Giardia lamblia WBC6 incubated for 48 hrs. The settings on record: Giardia duodenalis, WBC6, 48 h.
In test [3] the test system is Giardia intestinalis. Put plainly: Antigiardial activity against Giardia lamblia 713 incubated for 48 hrs. The settings on record: Giardia duodenalis, 713, 48 h.

As for `CCOc1ccc2cc(-c3nc(C(C)(C)C)n4ccnc(N)c34)ccc2c1`, the concentration for a half-maximal effect (EC50) with Giardia intestinalis [1] is 600 nM; with Giardia intestinalis [2], 600 nM; in the test on Giardia intestinalis [3], 1200 nM.

As usually defined, the EC50 is the concentration needed to bring the measured effect to its halfway point. Read a low EC50 as greater potency.
